Reference: patent publication US12544365B2, “Pharmaceutical combination of an EP4 antagonist and immune checkpoint inhibitors for the treatment of tumours” (ROTTAPHARM BIOTECH S.R.L., priority 2019, dated 2026)

Columns and labels:
[1] = tested on: PGE2 effect on TNF-α release in rat whole blood culture; test: In vitro TNF-α release induced by LPS and modulated by PGE2, rat whole blood culture; assay type: cell-based; conditions: 0.1 μg/ml LPS + fixed PGE2 concentration giving about 80% inhibition, 4 hours, read-out: IC50, reversal of PGE2 effect on TNF-α release
Procedure: Male Wistar Han rats (250-300 g b.w., Charles River, Italy) were housed six per cage in a temperature-controlled room, set to maintain temperature within the range of 20° C. #2° C. and relative humidity within the range of 55%±10 and with a 12-h/12-h light/dark cycle. Throughout the study animals had free access to standard laboratory chow (Teklad rodent diet 2018, Harlan Laboratories, S. Pietro al Natisone, UD, Italy) and drinking water. Care and handling of the animals were in accordance with the guidelines of the Local Government and the regulations of the European Community. Authorization for experimental procedures was granted by the Italian Ministry of Health. The day of the experiments animals were anaesthetized with 2.5-3% isoflurane in O2 inside an induction chamber and blood was drawn from the abdominal aorta. Whole blood samples were collected in tubes containing 0.1-0.2U/ml heparin. […]
In samples representing basal release of the cytokine, LPS was substituted by the same volume of sterile PBS. […] The levels of TNF-α release in rat whole blood culture were evaluated using the Rat TNFalpha ELISA kit (Diaclone, France). Compared to the reference standard curve, TNF-α levels in samples were expressed as concentration (pg/ml).

[2] = tested on: TNF-α gene expression in human THP-1 macrophages; test: TNF-α gene expression in THP-1 cells differentiated to macrophages (LPS + PGE2), RT-PCR; assay type: cell-based; conditions: LPS 10 ng/ml + PGE2 10 nM, 3 hours, concentration as low as 0.1 μM
Procedure: The human monocyte cell line THP-1, obtained from the ATCC, was grown according to the instructions provided. THP-1 cells were differentiated to macrophages with 100 nM phorbol 12-myristate 13-acetate (PMA) (Sigma Aldrich) for 4 days. Macrophages were then stimulated with lipopolysaccharide (LPS) (Sigma Aldrich) 10 ng/ml and PGE2 0.01 μM for 3 hours. Total RNA was purified using the ABI Prism 6100 Nucleic Acid PrepStation (Applied Biosystems, Foster City, CA, USA) and retrotranscribed using the High-Capacity cDNA Reverse Transcription Kit (Thermo Fisher Scientific). RT-PCR analysis was performed using the Applied Biosystems 7500 Fast Real-Time PCR System using specific TaqMan assays (number Hs00174128_m1; Thermo Fisher Scientific) and, as an endogenous control, the 18S Pre-Developed TaqMan® Assay (Thermo Fisher Scientific). The data analysis, with normalisation on 18S amplified values, was done following Thermo Fisher Scientific's specific instructions for gene expression relative quantification. All individual data are the result of at least three different analyses for each sample.
To evaluate the Compound 1 potential in counteracting the PGE2 induced inhibition of TNF-α gene expression in human macrophages, THP-1 cells were differentiated to macrophages and subsequently treated with LPS 10 ng/ml plus PGE2 10 nM+Compound 1 in the 0.01 μM to 10 μM concentrations range for 3 hours.

[3] = tested on: RANK-L gene expression in MDA-MB-231 cells; test: RANK-L gene expression in MDA-MB-231 cells stimulated with PGE2, RT-PCR; assay type: cell-based, human; conditions: 10 μM compound + 10 μM PGE2, 24 hours
Procedure: The human mammary gland adenocarcinoma MDA-MB-231 cells were obtained from ATCC and grown according to the instructions provided.
Cells were treated with 10 μM PGE2+Compound 1 10 μM for 24 hours. Total RNA was purified using the ABI Prism 6100 Nucleic Acid PrepStation (Applied Biosystems, Foster City, CA, USA) and retrotranscribed using the High-Capacity cDNA Reverse Transcription Kit (Thermo Fisher Scientific). RT-PCR analysis was performed using the Applied Biosystems 7500 Fast Real-Time PCR System using specific TaqMan assays (Hs00243522_m1; Thermo Fisher Scientific) and, as an endogenous control, the 18S Pre-Developed TaqMan® Assay (Thermo Fisher Scientific). The data analysis, with normalisation on 18S amplified values, was done following Thermo Fisher Scientific specific instructions for gene expression relative quantification. All individual data are the result of at least three different analyses for each sample.
MDA-MB-231 cells treated with 10 μM PGE2+Compound 1 10 μM for 24 hours and the levels of RANKL gene expression were evaluated by quantitative RT-PCR.

[4] = tested on: Th-17 cells differentiation of human CD4+ naïve T cells; test: Ex vivo human Th-17 cells differentiation (flow cytometry); assay type: cell-based; conditions: 0.03 μM PGE2, 48 hours
Procedure: Peripheral blood mononuclear cells (PBMC) were isolated from healthy volunteers using density gradient centrifugation and CD4+naïve T cells were enriched from PBMCs using human naïve CD4+ T cell isolation kit (Miltenyi Biotech). Isolated CD4+ T cells were maintained in RPMI medium and differentiated toward Th-17 cells by stimulation with IL-12 and IL-2, both 5 ng/ml in combination with 1.5 ng/ml of antibodies anti CD3 and anti CD28 and 0.03 μM PGE2+Compound 1 at concentration of 0.01-0.03-0.1-0.3 μM for 48 hours.
At the end of incubation time cells were stained with fluorescence-conjugated antibodies specific for CD4, CCR6, CD45, CD25 and IL-17 (all from BD Bioscience). Finally, the number of Th-17 cells was determined by flow cytometry and the events were measured by Fluorescence Activated Cell Sorter (FACS; BD Bioscience) and analyzed with dedicated software.

## O=C([O-])c1ccc(C2(NC(=O)[C@H]3CC4(CCN3Cc3ccc(C(F)(F)F)cc3)CC4)CC2)cc1.[Na+] [Compound 1, sodium (R)-4-(1-(6-(4-(trifluoromethyl)benzyl)-6-azaspiro[2.5]octane-5-carboxamido)cyclopropyl)benzoate]
[1]
  IC50: 2300 nM
[2]
  TNF-α gene expression vs cells treated with PGE2+LPS only: two to three fold increase
[3]
  RANK-L gene expression vs 10 μM PGE2: markedly decreased
[4]
  concentration at which plateau of maximal effect on Th-17 cells is reached: above 0.1 μM
[4]; 0.01-0.3 μM
  number of naïve Th-17 cells: marked decrease
